Where two headings read alike, the source gives them in different places.
Molecular target: T1, N-type Ca^2+ Channel (Homo sapiens, UniProt Q00975)
T1 construct: host or cells: IMR-32 cells differentiated with dibutyryl cAMP and bromodeoxyuridine
Assay: Measurement of N-type Ca2+ channel blocking potencies in IMR-32 cells using the fluorescent Ca2+ indicator Indo-1
Assay type: cell-based
Conditions: IMR-32 cells
In short: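 IMR-32 cells were differentiated 7–13 days (1 mM dibutyryl cAMP, 2.5 µM BrdU) and Indo-1-loaded. They were preincubated 10 min at 30 °C with compound and 5 µM nitrendipine in HEPES/Tris pH 7.4 HBSS with 0.5% BSA, then KCl/CaCl2-depolarized. The peak-minus-basal 400/490 nm emission ratio gave IC50 by four-parameter logistic fit.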

[1] = K+ depolarization, 5 μM nitrendipine to block L-type channels, read-out: IMR 32 IC50

T1 sequence (Q00975 whole entry): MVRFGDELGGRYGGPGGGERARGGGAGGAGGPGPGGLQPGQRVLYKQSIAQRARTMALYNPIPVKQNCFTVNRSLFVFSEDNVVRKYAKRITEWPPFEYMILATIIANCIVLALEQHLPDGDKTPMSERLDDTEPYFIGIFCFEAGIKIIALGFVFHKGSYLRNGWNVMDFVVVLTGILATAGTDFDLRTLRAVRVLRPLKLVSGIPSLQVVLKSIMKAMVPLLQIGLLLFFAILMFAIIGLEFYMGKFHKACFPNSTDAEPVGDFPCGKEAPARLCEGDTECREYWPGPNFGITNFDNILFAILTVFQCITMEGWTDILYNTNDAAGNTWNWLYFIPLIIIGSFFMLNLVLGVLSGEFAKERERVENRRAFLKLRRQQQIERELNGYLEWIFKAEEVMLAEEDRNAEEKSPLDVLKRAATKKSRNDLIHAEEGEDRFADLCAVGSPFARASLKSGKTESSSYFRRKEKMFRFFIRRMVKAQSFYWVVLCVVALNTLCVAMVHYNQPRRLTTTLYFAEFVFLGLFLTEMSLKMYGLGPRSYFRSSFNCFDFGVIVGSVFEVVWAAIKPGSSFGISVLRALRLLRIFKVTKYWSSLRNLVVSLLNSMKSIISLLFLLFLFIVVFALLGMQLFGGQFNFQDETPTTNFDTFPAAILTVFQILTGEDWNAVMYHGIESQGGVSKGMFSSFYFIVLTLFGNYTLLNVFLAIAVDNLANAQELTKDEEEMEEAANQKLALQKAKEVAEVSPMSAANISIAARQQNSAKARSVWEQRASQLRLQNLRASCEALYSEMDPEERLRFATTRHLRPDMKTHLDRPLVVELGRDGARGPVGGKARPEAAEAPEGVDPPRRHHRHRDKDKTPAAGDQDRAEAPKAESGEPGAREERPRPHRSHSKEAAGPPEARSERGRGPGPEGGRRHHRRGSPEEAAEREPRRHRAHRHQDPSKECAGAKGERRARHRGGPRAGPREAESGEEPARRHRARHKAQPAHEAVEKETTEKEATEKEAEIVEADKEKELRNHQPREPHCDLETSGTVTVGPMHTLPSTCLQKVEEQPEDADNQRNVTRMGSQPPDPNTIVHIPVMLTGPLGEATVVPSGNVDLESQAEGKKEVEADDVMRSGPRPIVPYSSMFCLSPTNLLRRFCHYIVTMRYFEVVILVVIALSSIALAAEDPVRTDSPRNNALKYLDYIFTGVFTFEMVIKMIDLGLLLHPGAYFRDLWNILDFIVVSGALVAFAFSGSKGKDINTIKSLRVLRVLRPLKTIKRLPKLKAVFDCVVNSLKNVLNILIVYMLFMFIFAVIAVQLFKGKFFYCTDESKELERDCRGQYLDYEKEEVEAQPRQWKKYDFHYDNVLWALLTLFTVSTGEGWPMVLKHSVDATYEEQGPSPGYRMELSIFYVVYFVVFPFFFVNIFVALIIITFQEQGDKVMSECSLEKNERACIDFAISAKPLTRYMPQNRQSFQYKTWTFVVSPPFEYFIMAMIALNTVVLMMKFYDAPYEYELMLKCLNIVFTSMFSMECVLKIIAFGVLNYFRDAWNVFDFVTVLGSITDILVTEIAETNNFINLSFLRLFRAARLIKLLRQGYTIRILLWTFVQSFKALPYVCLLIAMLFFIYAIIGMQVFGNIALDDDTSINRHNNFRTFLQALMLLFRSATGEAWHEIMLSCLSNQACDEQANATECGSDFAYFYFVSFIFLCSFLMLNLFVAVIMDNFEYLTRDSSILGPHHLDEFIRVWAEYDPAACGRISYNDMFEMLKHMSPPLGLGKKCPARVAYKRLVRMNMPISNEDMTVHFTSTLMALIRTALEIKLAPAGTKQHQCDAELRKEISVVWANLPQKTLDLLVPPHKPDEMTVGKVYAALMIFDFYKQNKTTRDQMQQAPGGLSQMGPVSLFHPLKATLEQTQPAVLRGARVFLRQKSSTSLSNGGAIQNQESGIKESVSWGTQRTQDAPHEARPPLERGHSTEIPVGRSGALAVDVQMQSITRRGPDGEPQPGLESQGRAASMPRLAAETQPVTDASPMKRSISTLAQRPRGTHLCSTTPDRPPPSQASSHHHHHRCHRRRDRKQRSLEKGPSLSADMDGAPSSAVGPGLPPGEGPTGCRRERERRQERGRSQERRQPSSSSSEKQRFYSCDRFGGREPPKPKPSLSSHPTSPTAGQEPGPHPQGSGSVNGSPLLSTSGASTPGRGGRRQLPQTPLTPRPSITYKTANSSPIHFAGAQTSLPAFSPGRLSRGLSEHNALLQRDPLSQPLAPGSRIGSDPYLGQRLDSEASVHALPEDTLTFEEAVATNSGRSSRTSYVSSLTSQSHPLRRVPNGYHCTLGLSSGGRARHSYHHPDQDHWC
T1 sequence (P54284 whole entry partner): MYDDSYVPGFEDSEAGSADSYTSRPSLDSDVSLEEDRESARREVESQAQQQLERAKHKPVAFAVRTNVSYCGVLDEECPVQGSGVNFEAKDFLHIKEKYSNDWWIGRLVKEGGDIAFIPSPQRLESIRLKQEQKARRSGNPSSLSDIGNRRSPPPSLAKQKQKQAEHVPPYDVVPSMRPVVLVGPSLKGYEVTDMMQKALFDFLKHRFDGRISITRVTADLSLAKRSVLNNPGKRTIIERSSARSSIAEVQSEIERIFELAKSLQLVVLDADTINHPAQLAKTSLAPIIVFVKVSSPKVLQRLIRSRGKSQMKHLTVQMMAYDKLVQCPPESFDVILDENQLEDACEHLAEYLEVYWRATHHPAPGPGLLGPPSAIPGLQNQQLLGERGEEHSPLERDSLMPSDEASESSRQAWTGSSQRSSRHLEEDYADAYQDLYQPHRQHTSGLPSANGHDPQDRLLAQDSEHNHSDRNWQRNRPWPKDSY
T1 sequence (P54289 25-946 partner limits assumed): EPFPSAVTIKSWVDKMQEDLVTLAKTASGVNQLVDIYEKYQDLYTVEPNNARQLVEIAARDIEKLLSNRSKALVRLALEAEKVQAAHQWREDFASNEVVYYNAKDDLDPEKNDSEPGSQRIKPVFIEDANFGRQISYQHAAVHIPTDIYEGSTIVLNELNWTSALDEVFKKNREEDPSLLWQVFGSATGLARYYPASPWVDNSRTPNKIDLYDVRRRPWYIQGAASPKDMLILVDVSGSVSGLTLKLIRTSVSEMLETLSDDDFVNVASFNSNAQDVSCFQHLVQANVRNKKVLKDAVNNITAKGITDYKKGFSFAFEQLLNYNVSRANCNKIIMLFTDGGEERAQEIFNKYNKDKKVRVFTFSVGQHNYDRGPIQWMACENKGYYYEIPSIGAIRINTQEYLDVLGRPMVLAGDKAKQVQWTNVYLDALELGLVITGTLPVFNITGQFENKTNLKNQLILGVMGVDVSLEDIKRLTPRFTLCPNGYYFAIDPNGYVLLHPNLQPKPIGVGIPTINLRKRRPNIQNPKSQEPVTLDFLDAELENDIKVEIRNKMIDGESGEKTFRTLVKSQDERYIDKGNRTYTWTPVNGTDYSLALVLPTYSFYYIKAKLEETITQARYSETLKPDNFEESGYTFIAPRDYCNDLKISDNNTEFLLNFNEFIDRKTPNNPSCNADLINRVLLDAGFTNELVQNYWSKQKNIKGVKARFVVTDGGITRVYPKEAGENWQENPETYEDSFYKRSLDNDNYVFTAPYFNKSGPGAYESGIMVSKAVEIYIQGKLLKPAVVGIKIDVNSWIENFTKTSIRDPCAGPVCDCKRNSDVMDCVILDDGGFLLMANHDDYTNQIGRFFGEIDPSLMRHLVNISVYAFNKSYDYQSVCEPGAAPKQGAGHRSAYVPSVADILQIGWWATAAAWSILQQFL
T1 sequence (P54289 947-1103 partner limits assumed): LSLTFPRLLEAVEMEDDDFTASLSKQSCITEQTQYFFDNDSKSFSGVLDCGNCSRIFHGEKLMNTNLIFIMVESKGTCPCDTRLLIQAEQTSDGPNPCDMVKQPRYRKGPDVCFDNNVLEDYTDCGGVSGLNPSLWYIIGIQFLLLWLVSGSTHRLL

SMILES | IC50 [1] [nM] | further results
CC(C)=CCN(C)[C@@H](CC(C)C)C(=O)N[C@@H](Cc1ccc(OCc2ccccc2)cc1)C(=O)NC(C)(C)C (relative stereo) [Example 51, [S-(R*,R*)]4-Methyl-2-[methyl-(3-methyl-but-2-enyl)-amino]-pentanoic acid [2-(4-benzyloxy-phenyl)-1-tert-butylcarbamoyl-ethyl]-amide] | 1300 | 
CC(C)C[C@H](NC1CCOCC1)C(=O)N[C@@H](Cc1ccc(OCc2ccccc2)cc1)C(=O)NC1CCN(Cc2ccccc2)C1 (relative stereo) [Example 76, [S-(R*,R*)]-4-Methyl-2-(tetrahydro-pyran4-ylamino)-pentanoic acid [2-(4-benzyloxy-phenyl)-1-(1-benzyl-pyrrolidin-3-ylcarbamoyl)-ethyl]-amide] | 600 | 
CCC[C@@H](C(=O)N[C@@H](Cc1ccc(OCc2ccccc2)cc1)C(=O)NC(C)(C)C)N(C)CCC(C)C (relative stereo) [Example 46, [S-(R*,R*)]-4-Methyl-2-[methyl-(3-methyl-butyl)-amino]-butyric acid [2-(4-benzyloxy-phenyl)-1-tert-butylcarbamoyl-ethyl]-amide] |  | IMR 32 % of Blockade @ 0.3 μM (5 μM nitrendipine): 36%; IMR 32 % of Blockade @ 3 μM (5 μM nitrendipine): 74%
CC(C)CCN(C)[C@@H](CC(C)C)C(=O)N[C@@H](Cc1ccc(OCc2ccccc2)cc1)C(=O)NCCc1ccccn1 (relative stereo) [Example 58, [S-(R*,R*)]-4-Methyl-2-[methyl-(3-methyl-butyl)-amino]-pentanoic acid [2-(4-benzyloxy-phenyl)-1-(2-pyridin-2-yl-ethylcarbamoyl)-ethyl]-amide] | 1000 | 
CC(C)CCN(C)[C@@H](CC(C)C)C(=O)N[C@@H](Cc1ccc(OCc2ccccc2)cc1)C(=O)NC(C)(C)CO (relative stereo) [Example 116, [S-(R*,R*)]4-Methyl-2-[methyl-(3-methylbutyl)-amino]-pentanoic acid [2-(4-benzyloxy-phenyl)-1-(2-hydroxy-1,1-dimethyl-ethylcarbamoyl)-ethyl]-amide] |  | IC50 (5 μM nitrendipine, Examples 116-140, read-out: IMR 32% of Blockade @): 1400 nM
CC(C)C[C@@H](C(=O)N[C@@H](Cc1ccc(OCc2ccccc2)cc1)C(=O)NC(C)(C)C)N(C)Cc1cccnc1 (relative stereo) [Example 101, [S-(R*,R*)]-4-Methyl-2-(methyl-pyridin-3-ylmethyl-amino)-pentanoic acid [2-(4-benzyloxy-phenyl)-1-tert-butylcarbamoyl-ethyl]-amide] |  | IMR 32 % of Blockade @ 1 μM (5 μM nitrendipine): 26%
CC(C)CC(C(=O)NC(Cc1ccc(OCc2ccccc2)cc1)C(=O)N1CCCCC1)N1CCOCC1 (stereo not drawn) [Example 70, [S-(R*,R*)]-4-Methyl-2-morpholin-4-yl-pentanoic acid [1-(4-benzyloxy-benzyl)-2-oxo-2-piperidin-1-yl-ethyl]-amide] | 2300 | 
CC(C)CCN(C)[C@@H](CC(C)C)C(=O)N[C@@H](Cc1ccc(OCc2ccccc2)cc1)C(=O)NC1CCN(Cc2ccccc2)CC1 (relative stereo) [Example 11, [S-(R*,R*)]-4-Methyl-2-[methyl-(3-methyl-butyl)-amino]-pentanoic acid [2-(4-benzyloxy-phenyl)-1-(1-benzyl-piperidin-4-ylcarbamoyl)-ethyl]-amide] |  | IMR 32 % of Blockade @ 1 μM (5 μM nitrendipine): 70%; IMR 32 % of Blockade @ 10 μM (5 μM nitrendipine): 89%
CCN(CCC(C)C)C(CC(C)C)C(=O)NC(Cc1ccc(OCc2ccccc2)cc1)C(=O)NC(C)(C)C (stereo not drawn) [Example 45, [S-(R*,R*)]-4Methyl-2-[ethyl-(3-methyl-butyl)-amino]-pentanoic acid [2-(4-benzyloxy-phenyl)-1-tert-butylcarbamoyl-ethyl]-amide] |  | IMR 32 % of Blockade @ 0.3 μM (5 μM nitrendipine): 45%; IMR 32 % of Blockade @ 3 μM (5 μM nitrendipine): 77%
CC(C)C[C@@H](C(=O)N[C@@H](Cc1ccc(OCc2ccccc2)cc1)C(=O)NC1CCN(Cc2ccccc2)C1)N1CCOCC1 (relative stereo) [Example 69, [S-(R*,R*)]-4-Methyl-2-morpholin-4-yl-pentanoic acid [2-(4-benzyloxy-phenyl)-1-(1-benzyl-pyrrolidin-3-ylcarbamoyl)-ethyl]-amide] | 1300 | 
CC(C)C[C@@H](C(=O)N[C@@H](Cc1ccc(OCc2ccccc2)cc1)C(=O)NC(C)(C)C)N(C)Cc1ccc(Br)cc1 (relative stereo) [Example 81, [S-(R*,R*)]-2-[(4-Bromo-benzyl)-methyl-amino]4-methyl-pentanoic acid [2-(4-benzyloxy-phenyl)-1-tert-butylcarbamoyl-ethyl]-amide] | 160 | 
CC(C)CCN(C)C(CC(C)C)C(=O)NC(Cc1ccc(OCc2ccccc2)cc1)C(=O)NCCNCCO (stereo not drawn) [Example 66, [S-(R*,R*)]-4-Methyl-2-[methyl-(3-methyl-butyl)-amino]-pentanoic acid {2-(4-benzyloxy-phenyl)-1-[2-(2-hydroxy-ethylamino)-ethylcarbamoyl]-ethyl}-amide] | 1900 | 
CC(C)C[C@H](N[C@@H]1C=CCCC1)C(=O)NC(Cc1ccc(OCc2ccccc2)cc1)C(=O)NC(C)(C)C (relative stereo) [Example 49, [S-(R*,R*)]-2-(Cyclohex-2-enylamino)-4-methyl-pentanoic acid [2-(4-benzyloxy-phenyl)-1-tert-butylcarbamoyl-ethyl]-amide] | 660 | 
CC(C)C[C@@H](C(=O)N[C@@H](Cc1ccc(OCc2ccccc2)cc1)C(=O)NCCN1CCCCC1)N(C)C1CCCCC1 (relative stereo) [Example 21, [S-(R*,R*)]-2-(Cyclohexyl-methyl-amino)4-methyl-pentanoic acid [2-(4-benzyloxy-phenyl)-1-(2-piperidin-1-yl-ethylcarbamoyl)-ethyl]-amide] | 880 | 
CC(C)CCN(C)[C@@H](CC(C)C)C(=O)N[C@@H](Cc1ccc(OCc2ccccc2)cc1)C(=O)N1CCCCC1 (relative stereo) [Example 8, [S-(R*,R*)]-4-Methyl-2-[methyl-(3-methyl-butyl)-amino]-pentanoic acid [1-(4-benzyloxy-benzyl)-2-oxo-2-piperidin-1-yl-ethyl]-amide] |  | IMR 32 % of Blockade @ 1 μM (5 μM nitrendipine): 70%; IMR 32 % of Blockade @ 10 μM (5 μM nitrendipine): 87%

Now from value to compound, other results behind:

IC50 [1] [nM] | SMILES | further results
1400 | CC(C)C[C@@H](C(=O)N[C@@H](Cc1ccc(OCc2ccccc2)cc1)C(=O)NC(C)(C)C)N1CCCCC1 (relative stereo) [Example 99, [S-(R*,R*)]-4-Methyl-2-piperidin-1-yl-pentanoic acid [2-(4-benzyloxy-phenyl)-1-tert-butylcarbamoyl-ethyl]-amide] | 
2000 | CCN[C@@H](CC(C)C)C(=O)N[C@@H](Cc1ccc(OCc2ccccc2)cc1)C(=O)NC(C)(C)C (relative stereo) [Example 100, [S-(R*,R*)]-2-Ethylamino-4-methyl-pentanoic acid [2-(4-benzyloxy-phenyl)-1-tert-butylcarbamoyl-ethyl]-amide] | 
460 | CC(C)CCNC(CC(C)C)C(=O)NC(Cc1ccc(OCc2ccccc2)cc1)C(=O)OC(C)(C)C (stereo not drawn) [Example 95, [S-(R*,R*)]-3-(4-Benzyloxy-phenyl)2-[4-methyl-2-(3-methyl-butylamino)-pentanoylamino]-propionic acid tert-butyl ester] | 
400 | COc1ccc(CN(C)[C@@H](CC(C)C)C(=O)N[C@@H](Cc2ccc(OCc3ccccc3)cc2)C(=O)NC(C)(C)C)cc1 (relative stereo) [Example 98, [S-(R*,R*)]-2-[(4-Methoxy-benzyl)-methyl-amino]-4-methyl-pentanoic acid [2-(4-benzyloxy-phenyl)-1-tert-butylcarbamoyl-ethyl]-amide] | 
